In patent publication US20260078120A1, “SUBSTITUTED PYRIDOPYRIMIDINONES” (MIRATI THERAPEUTICS, INC., priority 2022, published 2026):

Assays:
[1] = tested on: SKBR3 (PI3Kα wild type) cells; assay: CellTiter-Glo 2.0 luminescent cell viability assay, 72 hours, SKBR3 cells; type: cell-based; conditions: Homo sapiens, SK-BR-3, 72 h, SKBR3 (PI3Kα wild type) cells, CellTiter-Glo, approximately 72 hours; read-out: SKBR3 (WT) Viability IC50
Outline: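 Viability measured via CTG luminescence following roughly 72 hours of compound exposure at 37° C. Dosing used a 10 um starting concentration diluted 1:4 over 10 points; percent-of-vehicle data fitted with a variable-slope four-parameter model for IC50.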

[2] = tested on: T47D (PI3Kα H1047R mutant) cells; assay: CellTiter-Glo 2.0 luminescent cell viability assay, 72 hours, T47D cells; type: cell-based; conditions: Homo sapiens, T47D, 72 h, T47D (PI3Kα H1047R mutant) cells, CellTiter-Glo, approximately 72 hours; read-out: T47D (H1047R mutant) Viability IC50
Outline: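 Viability was measured by CellTiter-Glo 2.0 luminescence after approximately 72 h of compound exposure at 37° C. Plating was 1000 cells per well the day before dosing, with ten 1:4 dilutions from a 10 µM top concentration. Values as percent of vehicle were fitted by variable-slope log(inhibitor) regression to give IC50.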

| SMILES | IC50 [1] [nM] | IC50 [2] [nM] |
| --- | --- | --- |
| Cc1cc([C@@H](C)Nc2ccc(Cl)nc2C(=O)O)c2nc(N3Cc4ccncc4C3)c(C#N)c(=O)n2c1 [Example 11-147, (R)-6-chloro-3-((1-(3-cyano-2-(1,3-dihydro-2H-pyrrolo[3,4-c]pyridin-2-yl)-7-methyl-4-oxo-4H-pyrido[1,2-a]pyrimidin-9-yl)ethyl)amino)picolinic acid] | > 10000 | 1040 |
| Cc1cc([C@@H](C)Nc2ccccc2C(=O)O)c2nc(C3=CCN(C)CC3)c(C)c(=O)n2c1 [Example 11-148, (R)-2-((1-(3,7-dimethyl-2-(1-methyl-1,2,3,6-tetrahydropyridin-4-yl)-4-oxo-4H-pyrido[1,2-a]pyrimidin-9-yl)ethyl)amino)benzoic acid] | > 10000 | 1190 |
| Cc1cc([C@@H](C)Nc2ccccc2C(=O)O)c2nc(C3CCN(C)CC3)c(C)c(=O)n2c1 [Example 11-149, (R)-2-((1-(3,7-dimethyl-2-(1-methylpiperidin-4-yl)-4-oxo-4H-pyrido[1,2-a]pyrimidin-9-yl)ethyl)amino)benzoic acid] | > 10000 | > 10000 |
| Cc1cc([C@@H](C)Nc2ccccc2C(=O)O)c2nc(N3CCN(C4CC4)CC3)c(C#N)c(=O)n2c1 [Example 11-150, (R)-2-((1-(3-cyano-2-(4-cyclopropylpiperazin-1-yl)-7-methyl-4-oxo-4H-pyrido[1,2-a]pyrimidin-9-yl)ethyl)amino)benzoic acid] | > 10000 | 342 |
| Cc1cc([C@@H](C)Nc2ccccc2C(=O)O)c2nc(N3CCN(C4CC4)CC3)c(C)c(=O)n2c1 [Example 11-151, (R)-2-((1-(2-(4-cyclopropylpiperazin-1-yl)-3,7-dimethyl-4-oxo-4H-pyrido[1,2-a]pyrimidin-9-yl)ethyl)amino)benzoic acid] | > 10000 | 347 |
| Cc1cc([C@@H](C)Nc2ccccc2C(=O)O)c2nc(N3CCN(C4COC4)CC3)c(C#N)c(=O)n2c1 [Example 11-152, (R)-2-((1-(3-cyano-7-methyl-2-(4-(oxetan-3-yl)piperazin-1-yl)-4-oxo-4H-pyrido[1,2-a]pyrimidin-9-yl)ethyl)amino)benzoic acid] | > 10000 | 4340 |
| Cc1cc([C@@H](C)Nc2ccccc2C(=O)O)c2nc(N3CCN(C4COC4)CC3)c(C)c(=O)n2c1 [Example 11-153, (R)-2-((1-(3,7-dimethyl-2-(4-(oxetan-3-yl)piperazin-1-yl)-4-oxo-4H-pyrido[1,2-a]pyrimidin-9-yl)ethyl)amino)benzoic acid] | > 10000 | 880 |
| Cc1cc([C@@H](C)Nc2ccccc2C(=O)O)c2nc(N3CCN(CC(F)(F)F)CC3)c(C#N)c(=O)n2c1 [Example 11-154, (R)-2-((1-(3-cyano-7-methyl-4-oxo-2-(4-(2,2,2-trifluoroethyl)piperazin-1-yl)-4H-pyrido[1,2-a]pyrimidin-9-yl)ethyl)amino)benzoic acid] | > 10000 | 138 |
| Cc1cc([C@@H](C)Nc2ccccc2C(=O)O)c2nc(NCC3(F)CC3)c(C#N)c(=O)n2c1 [Example 11-155, (R)-2-((1-(3-cyano-2-(((1-fluorocyclopropyl)methyl)amino)-7-methyl-4-oxo-4H-pyrido[1,2-a]pyrimidin-9-yl)ethyl)amino)benzoic acid] | > 10000 | 165 |
| Cc1cc([C@@H](C)Nc2ccccc2C(=O)O)c2nc(NC[C@H]3CC3(F)F)c(C#N)c(=O)n2c1 [Example 11-156, 2-(((R)-1-(3-cyano-2-((((R)-2,2-difluorocyclopropyl)methyl)amino)-7-methyl-4-oxo-4H-pyrido[1,2-a]pyrimidin-9-yl)ethyl)amino)benzoic acid] | > 10000 | 174 |
| Cc1cc([C@@H](C)Nc2ccccc2C(=O)O)c2nc(NC[C@@H]3CC3(F)F)c(C#N)c(=O)n2c1 [Example 11-157, 2-(((R)-1-(3-cyano-2-((((S)-2,2-difluorocyclopropyl)methyl)amino)-7-methyl-4-oxo-4H-pyrido[1,2-a]pyrimidin-9-yl)ethyl)amino)benzoic acid] | > 10000 | 221 |
| Cc1cc([C@@H](C)Nc2ccccc2C(=O)O)c2nc(NCC3CC3(F)F)c(C#N)c(=O)n2c1 (stereo partly drawn) [Example 11-158, 2-(((1R)-1-(3-cyano-2-(((2,2-difluorocyclopropyl)methyl)amino)-7-methyl-4-oxo-4H-pyrido[1,2-a]pyrimidin-9-yl)ethyl)amino)benzoic acid] | > 10000 | 167 |
| Cc1cc([C@@H](C)Nc2ccccc2C(=O)O)c2nc(NCC3(C(F)(F)F)CC3)c(C#N)c(=O)n2c1 [Example 11-159, (R)-2-((1-(3-cyano-7-methyl-4-oxo-2-(((1-(trifluoromethyl)cyclopropyl)methyl)amino)-4H-pyrido[1,2-a]pyrimidin-9-yl)ethyl)amino)benzoic acid] | > 10000 | 176 |
| Cc1cc([C@@H](C)Nc2ccccc2C(=O)O)c2nc(N[C@H](C3CC3)C(F)(F)F)c(C#N)c(=O)n2c1 [Example 11-160, 2-(((R)-1-(3-cyano-2-(((R)-1-cyclopropyl-2,2,2-trifluoroethyl)amino)-7-methyl-4-oxo-4H-pyrido[1,2-a]pyrimidin-9-yl)ethyl)amino)benzoic acid] | > 10000 | 657 |
| Cc1cc([C@@H](C)Nc2ccccc2C(=O)O)c2nc(N[C@@H](C3CC3)C(F)(F)F)c(C#N)c(=O)n2c1 [Example 11-161, 2-(((R)-1-(3-cyano-2-(((S)-1-cyclopropyl-2,2,2-trifluoroethyl)amino)-7-methyl-4-oxo-4H-pyrido[1,2-a]pyrimidin-9-yl)ethyl)amino)benzoic acid] | > 10000 | 1050 |
| Cc1cc([C@@H](C)Nc2ccccc2C(=O)O)c2nc(N[C@@H](C)C3CC3)c(C#N)c(=O)n2c1 [Example 11-164, 2-(((R)-1-(3-cyano-2-(((S)-1-cyclopropylethyl)amino)-7-methyl-4-oxo-4H-pyrido[1,2-a]pyrimidin-9-yl)ethyl)amino)benzoic acid] | > 10000 | 228 |
| Cc1cc([C@@H](C)Nc2ccccc2C(=O)O)c2nc(N[C@H](C)C3CC3)c(C#N)c(=O)n2c1 [Example 11-165, 2-(((R)-1-(3-cyano-2-(((R)-1-cyclopropylethyl)amino)-7-methyl-4-oxo-4H-pyrido[1,2-a]pyrimidin-9-yl)ethyl)amino)benzoic acid] | > 10000 | 485 |
| Cc1cc([C@@H](C)Nc2ccccc2C(=O)O)c2nc(N[C@@H](C)C3CC3)c(C)c(=O)n2c1 [Example 11-166, 2-(((R)-1-(2-(((S)-1-cyclopropylethyl)amino)-3,7-dimethyl-4-oxo-4H-pyrido[1,2-a]pyrimidin-9-yl)ethyl)amino)benzoic acid] | > 10000 | 364 |
| Cc1cc([C@@H](C)Nc2ccccc2C(=O)O)c2nc(N[C@H](C)C3CC3)c(C)c(=O)n2c1 [Example 11-167, 2-(((R)-1-(2-(((R)-1-cyclopropylethyl)amino)-3,7-dimethyl-4-oxo-4H-pyrido[1,2-a]pyrimidin-9-yl)ethyl)amino)benzoic acid] | > 10000 | 1180 |
| C[C@@H](Nc1ccccc1C(=O)O)c1cc(C(F)F)cn2c(=O)c(C#N)c(N3CCC(F)(F)CC3)nc12 [Example 11-168, (R)-2-((1-(3-cyano-7-(difluoromethyl)-2-(4,4-difluoropiperidin-1-yl)-4-oxo-4H-pyrido[1,2-a]pyrimidin-9-yl)ethyl)amino)benzoic acid] | > 10000 | 241 |
